In ChEMBL document CHEMBL1201862, “PubChem BioAssay data set” (2004) one finds IC50, EC50 and AC50 data, which are given here for 6 compounds.

The target of one test is Protein Tat (Human immunodeficiency virus type 1 group M subtype B (isolate HXB2)(HIV-1), UniProt P04608). The class given is functional.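 Note: tat binding to TAR RNA read out by fluorescence polarization.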
The next test deals with Kallikrein-7 (Homo sapiens, UniProt P49862). The experiment in a line: Fluorescence Intensity-based biochemical primary high throughput dose response assay to identify activators of kallikrein-7 (K7) zymogen.
For test [1], the target named is T1, Oxysterols receptor LXR-beta (Homo sapiens, UniProt P55055).
T1 sequence (P55055 whole entry): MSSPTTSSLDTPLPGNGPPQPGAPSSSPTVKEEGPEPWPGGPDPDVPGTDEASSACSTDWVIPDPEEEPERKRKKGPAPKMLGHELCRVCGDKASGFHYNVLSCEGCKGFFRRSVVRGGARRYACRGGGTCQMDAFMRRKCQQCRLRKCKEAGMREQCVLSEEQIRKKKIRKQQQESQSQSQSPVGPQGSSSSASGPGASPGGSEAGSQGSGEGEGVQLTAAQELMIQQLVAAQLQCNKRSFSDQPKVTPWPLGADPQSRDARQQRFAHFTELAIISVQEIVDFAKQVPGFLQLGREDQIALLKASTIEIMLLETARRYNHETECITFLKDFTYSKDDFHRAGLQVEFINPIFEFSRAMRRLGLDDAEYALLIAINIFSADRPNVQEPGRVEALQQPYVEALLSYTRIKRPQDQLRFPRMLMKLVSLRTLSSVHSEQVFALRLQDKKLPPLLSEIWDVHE
The experiment in a line: LXR agonists, Gal4 luciferase reporter, dose response, counter-screen for ssDAF-12 agonist project, cell-based, luminescence, HEK293, S. stercoralis campaign (AID 720737). The class given is functional. Conditions: read-out: IC50 (the source's name). On the technique in general: Reporter assays use an easily measured gene product as a stand-in for the process of interest.

Test [2] can be described thus: Luminescence Cell-Based Dose Response HTS to Identify Activators of Luciferase Translation or Activity in H4 […] Cells. [Related pubchem assays: 1829 (Project Summary), 1814 (Primary HTS)]. Type of test: functional.
Test [3] is described as follows: Luminescence-based cell-based high throughput dose response assay to identify activators of the DAF-12 from the parasite S. stercoralis (ssDAF-12). The class given is functional.
Test [4] addresses T2, Carboxy-terminal domain RNA polymerase II polypeptide A small phosphatase 1 (Homo sapiens, UniProt Q9GZU7).
T2 sequence (Q9GZU7 whole entry): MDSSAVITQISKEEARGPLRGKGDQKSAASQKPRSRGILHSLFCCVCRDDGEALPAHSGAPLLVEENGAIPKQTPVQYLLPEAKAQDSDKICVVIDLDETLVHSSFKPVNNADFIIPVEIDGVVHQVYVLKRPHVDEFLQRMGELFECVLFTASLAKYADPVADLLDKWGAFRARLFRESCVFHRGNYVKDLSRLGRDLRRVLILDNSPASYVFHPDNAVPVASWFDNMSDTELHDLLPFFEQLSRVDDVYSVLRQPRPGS
Nature of the test: CTDSP1 inhibitors, concentration-response, biochemical, absorbance readout, ultra-high-throughput screen actives (AID 540297). Type of test: functional.

The target of a further test is ELAV-like protein 1 (Homo sapiens, UniProt Q15717). The experiment in a line: Identify HuR specific inhibitors. Type of test: functional.
A further test concerns the target T3, Caspase-6 (Homo sapiens, UniProt P55212).
T3 sequence (P55212 whole entry): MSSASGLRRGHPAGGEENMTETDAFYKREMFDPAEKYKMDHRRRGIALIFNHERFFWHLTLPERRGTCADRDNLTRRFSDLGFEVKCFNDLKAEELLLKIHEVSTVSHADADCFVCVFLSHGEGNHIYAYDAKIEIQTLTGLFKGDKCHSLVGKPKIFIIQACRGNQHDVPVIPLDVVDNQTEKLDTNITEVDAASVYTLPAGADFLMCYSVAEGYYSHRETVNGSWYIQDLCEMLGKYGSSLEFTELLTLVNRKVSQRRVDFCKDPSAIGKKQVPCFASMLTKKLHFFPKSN
Nature of the test: inhibition of CASP6 peptide cleavage – biochemical, VEID-R110 fluorescence, cherry-pick, dose response (AID 720632).

A short description of test [5]: Counterscreen for activators of the function of SWI/SNF related, matrix associated, actin dependent regulator of chromatin, subfamily a, member 2 (SMARCA2, BRM): Luminescence-based cell-based high throughput dose response assay to identify non-selective compounds using the VP16 reporter assay. The class given is functional.
Test [6] has as its target SWI/SNF-related matrix-associated actin-dependent regulator of chromatin subfamily A member 2 (Homo sapiens, UniProt P51531). Nature of the test: Luminescence-based cell-based high throughput dose response assay to identify activators of the function of SWI/SNF related, matrix associated, actin dependent regulator of chromatin, subfamily a, member 2 (SMARCA2, BRM). Type of test: functional.

The nature of test [7]: off-target signal loss in HeLa-CEM21 co-culture – HeLa F-luc CTL cells, cherry-picked, counter-screen for HIV-1 Env fusion inhibitor project, dose response (AID 652040).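 Note: potency for signal decrease marking cytotoxic or nonspecific inhibition.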 Type of test: functional, cell-based. (In general: A counterscreen serves to expose hits that act by an unwanted route or on another target.)
Test [8] can be described thus: inhibition of Env-driven cell fusion – HIV entry, plate reader, dry powder, dose response (AID 687023). The class given is functional, cell-based.
Test [9] in a line: blockers of HIV-1 ZM109 envelope-driven cell-cell fusion – HeLa effector, CEM target cells, luciferase, cherry-pick, dose response (AID 652058).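 Note: luciferase signal from HIV-1 Env mediated cell-cell fusion of effector and target cells.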 Type of test: functional, cell-based.
Test [10] is described as follows: HIV-1 AD8 envelope cell-cell fusion blockers – cherry-pick, dose response (AID 652062).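 Note: luciferase signal from cell-cell fusion driven by HIV-1 clade B AD8 Env; potency is for inhibitors of fusion seen as a drop in luminescence.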 Type of test: functional, cell-based.
The nature of test [11]: blockers of HIV-1 envelope-mediated cell-cell fusion – cherry-pick, dose response (AID 652057). Type of test: functional, cell-based.
A short description of test [12]: viability loss in CEM21 cells – cell-based, plate reader, dry powder, cytotoxicity control, dose response (AID 687026). Type of test: functional.
For test [13], the target named is T1, Oxysterols receptor LXR-beta. Type of test: functional, cell-based.
A short description of test [14]: Trypanosoma cruzi growth suppression in host cells – NIH3T3 host cells, beta-gal luminescence, confirmation (AID 2044).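 Note: intracellular parasites grown in NIH/3T3 mouse fibroblasts as host cells; luminescent beta-galactosidase reporter signal from transgenic T. cruzi replicating inside host cells; inhibitors lower the luminescence signal.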 The class given is functional, cell-based.
Test [15] is described as follows: NIH3T3 cell viability loss – ATP luminescence, mouse fibroblasts, counter-screen, dose response (AID 2010).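 Note: cells exposed to compound for about 90 hours before reading.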 The class given is functional, cell-based.

The structures appear in SMILES notation. Active and inactive are the calls of the source.

SWI/SNF-related matrix-associated actin-dependent regulator of chromatin subfamily A member 2, sequence (P51531 whole entry): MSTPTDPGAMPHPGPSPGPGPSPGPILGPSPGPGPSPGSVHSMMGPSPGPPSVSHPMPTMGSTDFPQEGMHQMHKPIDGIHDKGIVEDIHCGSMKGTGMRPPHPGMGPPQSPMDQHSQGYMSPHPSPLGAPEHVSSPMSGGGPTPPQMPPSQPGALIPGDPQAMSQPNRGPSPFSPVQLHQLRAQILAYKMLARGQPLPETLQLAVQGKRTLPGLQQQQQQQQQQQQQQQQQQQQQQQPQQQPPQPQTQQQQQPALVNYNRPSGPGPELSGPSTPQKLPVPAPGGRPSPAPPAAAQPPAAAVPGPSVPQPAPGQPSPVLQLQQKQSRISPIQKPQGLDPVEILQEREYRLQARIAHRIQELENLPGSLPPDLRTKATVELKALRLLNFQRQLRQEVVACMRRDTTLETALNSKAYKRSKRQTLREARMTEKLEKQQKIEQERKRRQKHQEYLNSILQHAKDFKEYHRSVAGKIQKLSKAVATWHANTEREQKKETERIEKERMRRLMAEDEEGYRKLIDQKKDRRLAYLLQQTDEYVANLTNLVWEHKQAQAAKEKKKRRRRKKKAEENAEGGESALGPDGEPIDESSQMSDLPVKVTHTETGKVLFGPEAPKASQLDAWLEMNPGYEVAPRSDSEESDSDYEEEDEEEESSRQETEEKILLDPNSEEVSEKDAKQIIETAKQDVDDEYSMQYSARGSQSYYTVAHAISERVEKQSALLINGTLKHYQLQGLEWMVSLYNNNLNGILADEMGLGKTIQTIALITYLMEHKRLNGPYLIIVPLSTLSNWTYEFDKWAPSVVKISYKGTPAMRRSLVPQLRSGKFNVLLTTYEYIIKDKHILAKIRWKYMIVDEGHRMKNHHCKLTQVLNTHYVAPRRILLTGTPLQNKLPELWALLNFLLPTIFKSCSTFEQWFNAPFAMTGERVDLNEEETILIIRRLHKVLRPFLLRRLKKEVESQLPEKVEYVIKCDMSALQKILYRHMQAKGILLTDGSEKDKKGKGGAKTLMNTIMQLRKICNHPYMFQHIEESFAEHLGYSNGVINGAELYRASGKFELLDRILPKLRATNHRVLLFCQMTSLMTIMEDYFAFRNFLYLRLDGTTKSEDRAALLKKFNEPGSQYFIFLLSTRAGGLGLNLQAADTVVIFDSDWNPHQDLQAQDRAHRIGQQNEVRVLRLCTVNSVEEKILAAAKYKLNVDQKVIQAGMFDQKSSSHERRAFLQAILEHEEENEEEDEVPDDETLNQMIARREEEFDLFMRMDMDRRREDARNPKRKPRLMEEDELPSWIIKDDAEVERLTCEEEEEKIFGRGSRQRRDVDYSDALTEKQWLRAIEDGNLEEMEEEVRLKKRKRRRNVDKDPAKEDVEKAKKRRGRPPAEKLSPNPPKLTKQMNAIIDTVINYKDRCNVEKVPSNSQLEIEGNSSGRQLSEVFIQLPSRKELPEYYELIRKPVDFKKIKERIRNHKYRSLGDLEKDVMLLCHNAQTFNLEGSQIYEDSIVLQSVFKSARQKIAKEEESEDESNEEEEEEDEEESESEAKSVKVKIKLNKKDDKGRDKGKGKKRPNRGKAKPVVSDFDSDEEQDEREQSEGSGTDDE
Protein Tat, sequence (P04608 whole entry): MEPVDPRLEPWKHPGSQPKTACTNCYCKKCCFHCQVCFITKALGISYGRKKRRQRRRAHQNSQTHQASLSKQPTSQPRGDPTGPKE
ELAV-like protein 1, sequence (Q15717 whole entry): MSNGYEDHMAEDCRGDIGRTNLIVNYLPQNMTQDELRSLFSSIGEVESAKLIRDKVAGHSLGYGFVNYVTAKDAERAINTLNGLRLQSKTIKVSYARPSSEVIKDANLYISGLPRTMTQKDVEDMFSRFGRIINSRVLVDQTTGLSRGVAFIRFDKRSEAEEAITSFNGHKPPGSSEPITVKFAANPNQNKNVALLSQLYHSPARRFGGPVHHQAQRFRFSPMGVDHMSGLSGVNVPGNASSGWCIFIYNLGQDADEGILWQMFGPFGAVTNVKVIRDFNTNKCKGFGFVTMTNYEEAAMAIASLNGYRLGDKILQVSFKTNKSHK
Kallikrein-7, sequence (P49862 whole entry): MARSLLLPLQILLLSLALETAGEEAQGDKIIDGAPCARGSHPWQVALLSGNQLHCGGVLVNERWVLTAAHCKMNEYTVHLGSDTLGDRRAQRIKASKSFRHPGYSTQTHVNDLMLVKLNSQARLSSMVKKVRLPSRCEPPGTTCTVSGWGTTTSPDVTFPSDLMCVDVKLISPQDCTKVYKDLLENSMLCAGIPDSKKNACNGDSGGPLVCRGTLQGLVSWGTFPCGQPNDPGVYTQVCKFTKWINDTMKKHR

For `CCCCn1c(N)c(N(CCOC)C(=O)c2cc(-c3ccco3)nc3ccccc23)c(=O)[nH]c1=O`, at Protein Tat, the IC50 (usually the concentration that gives 50% inhibition) was > 100 µM (active).
For `Cc1nn(-c2ccccn2)c2nc(-c3cccs3)cc(C(=O)N3CCOCC3)c12`, the EC50 at Kallikrein-7 is > 69.5 µM (inactive).
`Cc1c(C(=O)Nc2ccccn2)oc2ccccc12`: the EC50 in test [1] was > 67.5 µM (inactive); in test [2], 0.901 µM (active). Besides, the IC50 in [3] is > 67.5 µM (inactive).
Regarding `CC#CC#Cc1cccc(=O)o1`, the IC50 is 16.5 µM (active) in test [4] and 44.4 µM (active) at ELAV-like protein 1. In addition, the AC50 (commonly the concentration giving half of the maximal activity seen) on Caspase-6 was 9.68 µM (active). Moreover, the EC50 in test [5] and in test [6] was > 91 µM (inactive) throughout.
Regarding `O=C(Nc1ccc2c(c1)CCC2)C1CCN(c2c3c(nc4ncnn24)CCC3)CC1`, the AC50 was 41.2 µM (active) in [7]; 5.08 µM (active) in test [8]; 1.4 µM (active) in [9]; 3.88 µM (active) in [10]; 9.44 µM (active) in test [11]; > 70 µM (inactive) in test [12].
As to `NC(=S)N/N=C/c1ccc(-c2ccc(Cl)c(Cl)c2)o1`, the EC50 in “cells” is > 67.5 µM (inactive); in test [13], > 67.5 µM (inactive); in test [14], 0.983 µM (active); in [15] it was > 60 µM (not active).
